The results in this text go back to patent US8207172B2 (Bayer Intellectual Property GmbH, priority 2004, dated 2012).

Assay [1] deals with A431 cells (human epidermoid carcinoma). The experiment in a line: In vitro tumor cell proliferation assay (Cell Titer-Glo luminescent cell viability), A431. The class given is cell-based. Conditions: A-431, 72 h, 72 hours of drug exposure, ATP luminescence readout, read-out: IC50, anti-proliferative activity (inhibition of cell proliferation). In outline: (§1)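 CellTiter-Glo luminescence (ATP content of metabolically active cells) after 72 h compound exposure at 37° C gave IC50s.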
(In general: ATP-based viability assays read luminescence as a measure of living cells.)

Assay [2] deals with BT474 (human breast carcinoma). As to the kind of experiment: In vitro tumor cell proliferation assay (Cell Titer-Glo luminescent cell viability), BT474. The class given is cell-based. Conditions: BT-474, 72 h, BT474 cells, 72 hours of drug exposure, ATP luminescence readout, read-out: IC50, anti-proliferative activity (inhibition of cell proliferation). In a few lines:
as §1

Where a name gives a salt, the structure may show the parent alone.

For the compound `Fc1cccc(COc2ccc(Nc3ncnc4sc5c(c34)CCc3nn(CCn4ccnc4)cc3-5)cc2Cl)c1` [Example 77, N-{3-chloro-4-[(3-fluorobenzyl)oxy]phenyl}-2-[2-(1H-imidazol-1-yl)ethyl]-4,5-dihydro-2H-pyrimido[5′,4′:4,5]thieno[2,3-e]indazol-6-amine], the IC50 in assay [1] was not above 5 µM; in assay [2] it was not above 1 µM.

On to `CC(C)(C)[Si](C)(C)OCCn1cc2c(n1)CCc1c-2sc2ncnc(Nc3ccc(OCc4cccc(F)c4)c(Cl)c3)c12` [Example 55, 2-(2-{[tert-butyl(dimethyl)silyl]oxy}ethyl)N-{3-chloro-4-[(3-fluorobenzyl)oxy]phenyl}-4,5-dihydro-2H-pyrimido[5′,4′:4,5]thieno[2,3-e]indazol-6-amine], for which the IC50 is not above 50 µM in assay [1] and not above 5 µM in assay [2].

Regarding `Fc1cccc(Cn2ncc3cc(Nc4ncnc5sc6c(c45)CCc4nn(CCN5CCNCC5)cc4-6)ccc32)c1` [Example 284, N-[1-(3-fluorobenzyl)-1H-indazol-5-yl]-2-(2-piperazin-1-ylethyl)-4,5-dihydro-2H-pyrimido[5′,4′:4,5]thieno[2,3-e]indazol-6-amine], the IC50 in assay [1] was not above 5 µM; in assay [2], not above 1 µM.

Regarding `O=C(Cn1cc2c(n1)CCc1c-2sc2ncnc(Nc3ccc(OCc4cccc(F)c4)c(Cl)c3)c12)NCCO` [Example 178, 2-[6-({3-chloro-4-[(3-fluorobenzyl)oxy]phenyl}amino)-4,5-dihydro-2H-pyrimido[5′,4′:4,5]thieno[2,3-e]indazol-2-yl]-N-(2-hydroxyethyl)acetamide], the IC50 was not above 50 µM in assay [1] and not above 1 µM in assay [2].

For `CCCn1cc2c(n1)CCc1c-2sc2ncnc(Nc3ccc(OCc4cccc(F)c4)c(Cl)c3)c12` [Example 130, N-{3-chloro-4-[(3-fluorobenzyl)oxy]phenyl}-2-propyl-4,5-dihydro-2H-pyrimido[5′,4′:4,5]thieno[2,3-e]indazol-6-amine trifluoroacetate], the IC50 in assay [1] was not above 50 µM; in assay [2] it was not above 5 µM.

Consider `CS(=O)(=O)CCNCCn1cc2c(n1)CCc1c-2sc2ncnc(Nc3ccc(F)c(Cl)c3)c12` [Example 13, N-(3-chloro-4-fluorophenyl)-2-(2-{[2-(methylsulfonyl)ethyl]amino}ethyl)-4,5-dihydro-2H-pyrimido[5′,4′:4,5]thieno[2,3-e]indazol-6-amine], for which the IC50 in assay [1] and in assay [2] was not above 5 µM each time.

For `CC(C)N1CCC(CCn2cc3c(n2)CCc2c-3sc3ncnc(Nc4ccc(OCc5cccc(F)c5)c(Cl)c4)c23)CC1` [Example 252, N-{3-chloro-4-[(3-fluorobenzyl)oxy]phenyl}-2-[2-(1-isopropylpiperidin-4-yl)ethyl]-4,5-dihydro-2H-pyrimido[5′,4′:4,5]thieno[2,3-e]indazol-6-amine], the IC50 in assay [1] is not above 5 µM; in assay [2] it was not above 1 µM.

With `CC(C)NC[C@@H](O)Cn1cc2c(n1)CCc1c-2sc2ncnc(Nc3ccc(OCc4cccc(F)c4)c(Cl)c3)c12` [Example 159, (2R)-1-[6-({3-chloro-4-[(3-fluorobenzyl)oxy]phenyl}amino)-4,5-dihydro-2H-pyrimido[5′,4′:4,5]thieno[2,3-e]indazol-2-yl]-3-(isopropylamino)propan-2-ol trifluoroacetate (salt)], the IC50 in assay [1] is not above 50 µM; in assay [2], not above 5 µM.

For `c1ccc(Cn2ncc3cc(Nc4ncnc5sc6c(c45)CCc4nn(CCN5CCOCC5)cc4-6)ccc32)cc1` [Example 304, N-(1-benzyl-1H-indazol-5-yl)-2-(2-morpholin-4-ylethyl)-4,5-dihydro-2H-pyrimido[5′,4′:4,5]thieno[2,3-e]indazol-6-amine], the IC50 in assay [1] was not above 50 µM; in assay [2] it was not above 1 µM.

On to `CCOC(=O)Cn1cc2c(n1)CCc1c-2sc2ncnc(Nc3ccc(OCc4cccc(F)c4)c(Cl)c3)c12` [Example 174], for which the results for the IC50 in assay [1] and in assay [2] were not above 50 µM and not above 1 µM, respectively.

`OCC(CO)N1CCC(CCn2cc3c(n2)CCc2c-3sc3ncnc(Nc4ccc(OCc5cccc(F)c5)c(Cl)c4)c23)CC1` [Example 249, 2-(4-{2-[6-({3-chloro-4-[(3-fluorobenzyl)oxy]phenyl}amino)-4,5-dihydro-2H-pyrimido[5′,4′:4,5]thieno[2,3-e]indazol-2-yl]ethyl}piperidin-1-yl)propane-1,3-diol]: the IC50 was not above 5 µM in assay [1] and not above 1 µM in assay [2].

Consider `Fc1cccc(COc2ccc(Nc3ncnc4sc5c(c34)CCc3nn(CCC4CCN(Cc6ccco6)CC4)cc3-5)cc2Cl)c1` [Example 248, N-{3-chloro-4-[(3-fluorobenzyl)oxy]phenyl}-2-{2-[1-(2-furylmethyl)piperidin-4-yl]ethyl}-4,5-dihydro-2H-pyrimido[5′,4′:4,5]thieno[2,3-e]indazol-6-amine], for which the IC50 in assay [1] was not above 5 µM; in assay [2], not above 1 µM.

Turning to `O=C(CN1CCCC1)N1CCC(Cn2cc3c(n2)CCc2c-3sc3ncnc(Nc4ccc(OCc5cccc(F)c5)c(Cl)c4)c23)CC1` [Example 239, N-{3-chloro-4-[(3-fluorobenzyl)oxy]phenyl}-2-{[1-(pyrrolidin-1-ylacetyl)piperidin-4-yl]methyl}-4,5-dihydro-2H-pyrimido[5′,4′:4,5]thieno[2,3-e]indazol-6-amine], the IC50 was not above 5 µM in assay [1] and not above 1 µM in assay [2].

`CN1CCN(CC(=O)N2CCC(Cn3cc4c(n3)CCc3c-4sc4ncnc(Nc5ccc(OCc6cccc(F)c6)c(Cl)c5)c34)CC2)CC1` [Example 237]: the IC50 in assay [1] was not above 5 µM; in assay [2] it was not above 1 µM.

As for `CN(C)CCNCCn1cc2c(n1)CCc1c-2sc2ncnc(Nc3ccc(OCc4cccc(F)c4)c(Cl)c3)c12` [Example 67, N′-{2-[6-({3-chloro-4-[(3-fluorobenzyl)oxy]phenyl}amino)-4,5-dihydro-2H-pyrimido[5′,4′:4,5]thieno[2,3-e]indazol-2-yl]ethyl}-N,N-dimethylethane-1,2-diamine], the IC50 in assay [1] is not above 5 µM; in assay [2], not above 1 µM.

On to `CN(C)C1CCN(CCn2ncc3c2CCc2c-3sc3ncnc(Nc4ccc5c(cnn5Cc5cccc(F)c5)c4)c23)C1` (stereo not drawn) [Example 293, 3-{2-[3-(dimethylamino)pyrrolidin-1-yl]ethyl}-N-[1-(3-fluorobenzyl)-1H-indazol-5-yl]-4,5-dihydro-3H-pyrimido[5′,4′:4,5]thieno[2,3-e]indazol-6-amine], for which the IC50 is not above 50 µM in assay [1] and not above 1 µM in assay [2].

Take `COCCNCCn1cc2c(n1)CCc1c-2sc2ncnc(Nc3ccc(F)c(Cl)c3)c12` [Example 4, N-(3-chloro-4-fluorophenyl)-2-{2-[(2-methoxyethyl)amino]ethyl}-4,5-dihydro-2H-pyrimido[5′,4′:4,5]thieno[2,3-e]indazol-6-amine]: the IC50 in assay [1] and in assay [2] was not above 5 µM in each case.

For `OCCN(CCO)CCn1ncc2c1CCc1c-2sc2ncnc(Nc3ccc(F)c(Cl)c3)c12` [Example 91, 2,2′-[(2-{6-[(3-chloro-4-fluorophenyl)amino]-4,5-dihydro-3H-pyrimido[5′,4′:4,5]thieno[2,3-e]indazol-3-yl}ethyl)imino]diethanol trifluoroacetate (salt)], the IC50 in assay [1] and in assay [2] was not above 5 µM in each case.

For `O[C@H](CNCCN1CCOCC1)Cn1cc2c(n1)CCc1c-2sc2ncnc(Nc3ccc(OCc4cccc(F)c4)c(Cl)c3)c12` [Example 142, (2R)-1-[6-({3-chloro-4-[(3-fluorobenzyl)oxy]phenyl}amino)-4,5-dihydro-2H-pyrimido[5′,4′:4,5]thieno[2,3-e]indazol-2-yl]-3-[(2-morpholin-4-ylethyl)amino]propan-2-ol], the results for the IC50 in assay [1] and in assay [2] were not above 50 µM and not above 1 µM, respectively.

Regarding `COCCNCCn1ncc2c1CCc1c-2sc2ncnc(Nc3ccc4c(cnn4Cc4cccc(F)c4)c3)c12` [Example 297, N-[1-(3-fluorobenzyl)-1H-indazol-5-yl]-3-{2-[(2-methoxyethyl)amino]ethyl}-4,5-dihydro-3H-pyrimido[5′,4′:4,5]thieno[2,3-e]indazol-6-amine], the figures for the IC50 in assay [1] and in assay [2] were not above 5 µM and not above 1 µM, respectively.

Turning to `O=C(Cn1ncc2c1CCc1c-2sc2ncnc(Nc3ccc(OCc4cccc(F)c4)c(Cl)c3)c12)N1CCC(O)CC1` [Example 213, 1-{[6-({3-chloro-4-[(3-fluorobenzyl)oxy]phenyl}amino)-4,5-dihydro-3H-pyrimido[5′,4′:4,5]thieno[2,3-e]indazol-3-yl]acetyl}piperidin-4-ol], the IC50 in assay [1] was not above 5 µM; in assay [2], not above 1 µM.

For the compound `COCCN(CCOC)C[C@@H](O)Cn1cc2c(n1)CCc1c-2sc2ncnc(Nc3ccc(OCc4cccc(F)c4)c(Cl)c3)c12` [Example 138, (2R)-1-[bis(2-methoxyethyl)amino]-3-[6-({3-chloro-4-[(3-fluorobenzyl)oxy]phenyl}amino)-4,5-dihydro-2H-pyrimido[5′,4′:4,5]thieno[2,3-e]indazol-2-yl]propan-2-ol], the IC50 in assay [1] was not above 50 µM; in assay [2] it was not above 1 µM.

`CN1CCN(CCn2cc3c(n2)CCc2c-3sc3ncnc(Nc4ccc(OCc5ccccc5Cl)c(Cl)c4)c23)CC1` [Example 332, N-{3-chloro-4-[(2-chlorobenzyl)oxy]phenyl}-2-[2-(4-methylpiperazin-1-yl)ethyl]-4,5-dihydro-2H-pyrimido[5′,4′:4,5]thieno[2,3-e]indazol-6-amine]: the IC50 was not above 5 µM in assay [1] and not above 1 µM in assay [2].

As for `Fc1ccc(Nc2ncnc3sc4c(c23)CCc2nn(CCN3CCSCC3)cc2-4)cc1Cl` [Example 35, N-(3-chloro-4-fluorophenyl)-2-(2-thiomorpholin-4-ylethyl)-4,5-dihydro-2H-pyrimido[5′,4′:4,5]thieno[2,3-e]indazol-6-amine], the IC50 in assay [1] and in assay [2] was not above 5 µM throughout.
